Values of other authors, collected in patent US20110045089A1, “VITAMIN K3 DERIVATIVE / NSA FORMULATION” (priority 2009, published 2011).

Key:
[1] = for Total vitamin retention %: 1 × 2 × 3 × 4 (product of the four stress factors); for Vitamin retention, stress factor 1: vitamin premix without choline chloride: 2 months; for Vitamin retention, stress factor 4: petfood storage time: 8 months; for Vitamin retention, stress factor 2: extrusion temperature: 105° C.; for Vitamin retention, stress factor 3: drying/enrobing: 180° C.
[2] = 80° C., high humidity
[3] = premix containing choline chloride, after 6 months of storage (FIG. 2)

| Total vitamin retention % [1] [%] | Vitamin retention, stress factor 1: vitamin premix without choline chloride [1] [%] | Vitamin retention, stress factor 4: petfood storage time [1] [%] | Vitamin retention, stress factor 2: extrusion temperature [1] [%] | Vitamin retention, stress factor 3: drying/enrobing [1] [%] | Fraction decomposed during pelleting process [2] [%] | Original amount of K3 remaining in premix [3] [%] | SMILES |
| --- | --- | --- | --- | --- | --- | --- | --- |
| 5 | 98 | 27 | 50 | 37 | – | – | CC1(S(=O)(=O)[O-])CC(=O)c2ccccc2C1=O.[Na+] (stereo not shown) [MSB, Menadione Sodium Bisulphite] |
| 19 | 100 | 42 | 65 | 70 | – | – | CC1(S(=O)(=O)O)CC(=O)c2ccccc2C1=O.Cc1cc(C)nc(O)n1 (stereo not shown) [MPB, 2-hydroxy-4,6-dimethyl-pyrimidinium Menadione Bisulfite] |
| 25 | 100 | 47 | 70 | 76 | 50 | ≤ 70 | CC1(S(=O)(=O)O)CC(=O)c2ccccc2C1=O.NC(=O)c1cccnc1 (stereo not shown) [MNB, Nicotinamide Menadione Bisulfite] |
| 58 | 100 | 79 | 87 | 84 | – | – | NC(=O)c1cccnc1 [Niacinamide, nicotinamide] |
